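Following 48 hours of exposure in 96-well plates, responses at five concentrations were used to interpolate endpoints linearly. TGI: total growth inhibition.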
What was measured:
Assay in all cases: NCI tumour cell line growth inhibition, 48 h
CCRF-CEM leukemia = system: CCRF-CEM leukemia
786-0 renal = system: 786-0 renal
OVCAR-3 ovarian = system: OVCAR-3 ovarian
HL-60(TB) leukemia = system: HL-60(TB) leukemia
TK-10 renal = system: TK-10 renal
SNB-19 CNS = system: SNB-19 CNS
T-47D breast = system: T-47D breast
MOLT-4 leukemia = system: MOLT-4 leukemia
HCT-15 colon = system: HCT-15 colon
SK-OV-3 ovarian = system: SK-OV-3 ovarian
SR leukemia = system: SR leukemia
UACC-257 melanoma = system: UACC-257 melanoma
NCI-H23 lung = system: NCI-H23 lung
K-562 leukemia = system: K-562 leukemia
SF-295 CNS = system: SF-295 CNS
UACC-62 melanoma = system: UACC-62 melanoma
CAKI-1 renal = system: CAKI-1 renal
HOP-62 NSCLC = system: HOP-62 NSCLC
HS 578T breast = system: HS 578T breast
UO-31 renal = system: UO-31 renal
SW-620 colon = system: SW-620 colon
NCI-H226 lung = system: NCI-H226 lung
MDA-MB-231 breast = system: MDA-MB-231 breast
HT29 colon = system: HT29 colon
HCC-2998 colon = system: HCC-2998 colon
SF-268 CNS = system: SF-268 CNS
HOP-92 NSCLC = system: HOP-92 NSCLC
OVCAR-4 ovarian = system: OVCAR-4 ovarian
PC-3 prostate = system: PC-3 prostate
RXF 393 renal = system: RXF 393 renal
RPMI-8226 leukemia = system: RPMI-8226 leukemia
A549 NSCLC = system: A549 NSCLC
MDA-MB-435 = system: MDA-MB-435
MCF7 breast = system: MCF7 breast
ACHN renal = system: ACHN renal
OVCAR-5 ovarian = system: OVCAR-5 ovarian
LOX IMVI melanoma = system: LOX IMVI melanoma
A498 renal = system: A498 renal
COLO 205 colon = system: COLO 205 colon
U251 CNS = system: U251 CNS
HCT-116 colon = system: HCT-116 colon
NCI-H460 lung = system: NCI-H460 lung
SK-MEL-2 melanoma = system: SK-MEL-2 melanoma
DU-145 prostate = system: DU-145 prostate
EKVX NSCLC = system: EKVX NSCLC
BT-549 breast = system: BT-549 breast
SN12C renal = system: SN12C renal
M14 melanoma = system: M14 melanoma
MDA-N = system: MDA-N
NCI-H522 lung = system: NCI-H522 lung
SK-MEL-5 melanoma = system: SK-MEL-5 melanoma
MALME-3M melanoma = system: MALME-3M melanoma
SK-MEL-28 melanoma = system: SK-MEL-28 melanoma
SF-539 CNS = system: SF-539 CNS
SNB-75 CNS = system: SNB-75 CNS
OVCAR-8 ovarian = system: OVCAR-8 ovarian
KM12 colon = system: KM12 colon
IGROV1 ovarian = system: IGROV1 ovarian
NCI/ADR-RES ovarian = system: NCI/ADR-RES ovarian

Measured: TGI

COc1ccc2nc3cc([N+](=O)[O-])ccc3c(Nc3ccc(S(=O)(=O)NC(C)=O)cc3)c2c1
75.8 µM: SR leukemia
> 100 µM: CCRF-CEM leukemia | 786-0 renal | OVCAR-3 ovarian | HL-60(TB) leukemia | TK-10 renal | SNB-19 CNS | T-47D breast | MOLT-4 leukemia | HCT-15 colon | SK-OV-3 ovarian | UACC-257 melanoma | NCI-H23 lung | K-562 leukemia | SF-295 CNS | UACC-62 melanoma | CAKI-1 renal | HOP-62 NSCLC | HS 578T breast | UO-31 renal | SW-620 colon | NCI-H226 lung | MDA-MB-231 breast | HT29 colon | HCC-2998 colon | SF-268 CNS | HOP-92 NSCLC | OVCAR-4 ovarian | PC-3 prostate | RXF 393 renal | RPMI-8226 leukemia | A549 NSCLC | MDA-MB-435 | MCF7 breast | ACHN renal | OVCAR-5 ovarian | LOX IMVI melanoma | A498 renal | COLO 205 colon | U251 CNS | HCT-116 colon | NCI-H460 lung | SK-MEL-2 melanoma | DU-145 prostate | EKVX NSCLC | BT-549 breast | SN12C renal | M14 melanoma | MDA-N | NCI-H522 lung | SK-MEL-5 melanoma | MALME-3M melanoma | SK-MEL-28 melanoma | SF-539 CNS

O=c1cc(N2CCN(c3cc(=O)n4ccccc4n3)CC2)oc2ccccc12
> 65.3 µM: SF-268 CNS
> 100 µM: CCRF-CEM leukemia | 786-0 renal | OVCAR-3 ovarian | TK-10 renal | SNB-19 CNS | T-47D breast | MOLT-4 leukemia | HCT-15 colon | SK-OV-3 ovarian | NCI-H23 lung | K-562 leukemia | SF-295 CNS | UACC-62 melanoma | CAKI-1 renal | SW-620 colon | NCI-H226 lung | MDA-MB-231 breast | HT29 colon | HCC-2998 colon | HOP-92 NSCLC | OVCAR-4 ovarian | PC-3 prostate | RXF 393 renal | MDA-MB-435 | MCF7 breast | ACHN renal | OVCAR-5 ovarian | LOX IMVI melanoma | A498 renal | COLO 205 colon | U251 CNS | HCT-116 colon | NCI-H460 lung | SK-MEL-2 melanoma | DU-145 prostate | BT-549 breast | SN12C renal | IGROV1 ovarian | M14 melanoma | MDA-N | NCI-H522 lung | SK-MEL-5 melanoma | NCI/ADR-RES ovarian | MALME-3M melanoma | SK-MEL-28 melanoma | SF-539 CNS
> 80.2 µM: HS 578T breast
> 68.5 µM: KM12 colon
> 87.8 µM: A549 NSCLC
> 54.3 µM: SNB-75 CNS
90.5 µM: RPMI-8226 leukemia
> 31.6 µM: EKVX NSCLC
> 70.9 µM: UO-31 renal
96.9 µM: OVCAR-8 ovarian
> 71.8 µM: UACC-257 melanoma

CCOC(=O)c1cc2c3c(c(C(C)=O)c(O)c2[nH]1)N(CC(C)CC)CC3 (stereo not drawn)
92.6 µM: T-47D breast
51.4 µM: HS 578T breast
81.4 µM: MALME-3M melanoma
> 100 µM: CCRF-CEM leukemia | 786-0 renal | HL-60(TB) leukemia | TK-10 renal | SNB-19 CNS | MOLT-4 leukemia | HCT-15 colon | SK-OV-3 ovarian | SR leukemia | UACC-257 melanoma | NCI-H23 lung | K-562 leukemia | SF-295 CNS | UACC-62 melanoma | CAKI-1 renal | UO-31 renal | SW-620 colon | NCI-H226 lung | MDA-MB-231 breast | HT29 colon | SF-268 CNS | SNB-75 CNS | HOP-92 NSCLC | OVCAR-4 ovarian | PC-3 prostate | RXF 393 renal | OVCAR-8 ovarian | RPMI-8226 leukemia | A549 NSCLC | MDA-MB-435 | MCF7 breast | ACHN renal | LOX IMVI melanoma | A498 renal | COLO 205 colon | U251 CNS | HCT-116 colon | NCI-H460 lung | KM12 colon | SK-MEL-2 melanoma | DU-145 prostate | EKVX NSCLC | BT-549 breast | SN12C renal | IGROV1 ovarian | MDA-N | NCI-H522 lung | NCI/ADR-RES ovarian | SK-MEL-28 melanoma | SF-539 CNS
